Experimental data taken from patent US6387955B1, “Enhanced anti-angiogenic activity of permanently charged derivatives of steroid hormones” (Pharmos Corporation, priority 1997, dated 2002).

Legend:
[1] = test system: Bovine endothelial cells; experiment: Endothelial cell tube formation on Matrigel; assay type: cell-based; conditions: 10 μM, image analysis
Description: Bovine endothelial cells were harvested by brief exposure to 1 mM EDTA, washed with DMEM containing 0.1% bovine serum albumin and added to a layer of Matrigel (basement membrane components) in a 24 well plate to a density of 50,000 cells per well. After attachment, culture media (1.0 ml) was added and the plates incubated as a monolayer culture in the presence or absence of various concentrations of TMI. The plates were analyzed hourly using Hoffman optics for endothelial tube formation and growth. Photomicrographs were taken for estimation of relative inhibitory action.
The action of TMI on angiogenesis was evaluated using in vitro techniques. Bovine endothelial cells seeded on matrigel (a basement membrane preparation made up of laminin, collagen type IV, heparin sulfate proteoglycan and entactin) will form tubes which elongate as a function of time. […] A dose of 10 μM of TMI decreased tube area by more than 70%, as measured by image analysis.

[2] = test system: MCF-7 tumors; experiment: Growth of MCF-7 tumors implanted in ventral fat pad of nude mice, tumor size by MRI; assay type: in vivo; conditions: TMI pellet 6.3 mg 45-day release, 25 day time course
Description: Female CD1-nu/nu athymic mice (6 weeks old) were obtained from the Weizmann Institute Department of Animal Services. MCF-7 cells, serially passed as described above, were detached from the culturing flasks with 0.03% EDTA in phosphate buffered saline (PBS) and washed several times in normal saline. Cells (10^7/innoculum) were then injected into the ventral fat pad at the level of the breast. Coincident with cell introduction, a slow-release pellet of estradiol (0.72 mg/pellet, 45-day release profile; Innovative Research, Sarasota, Fla.) was implanted subcutaneously in the flank of the animal. Mice were anesthetized with ketamine/Rompun (i.p.) for the surgical procedures. […] At this point, animals were randomized into four study groups. In the first, the estrogen pellet was removed and replaced with a slow-release TMI-laden pellet (6.3 mg, 45-day release) (n=5). In the second group, the estrogen pellet was removed and replaced with a tamoxifen pellet (n=7). The third group was treated with a blank (placebo) pellet (n=5), while the fourth group was reimplanted with an estradiol pellet (n=4). TMI and placebo-treated animals were imaged (under ketamine/Rompun anesthesia) either immediately before pellet exchange (day 0) or at day 3, 6, 12 and 25 after pellet exchange.
MRI images were recorded with a Bruker 4.7 (tesla)/30 Biospec spectrometer (Bruker Medizintechnik, Rheinstetten, Germany). 1H Spin-echo images were recorded at 200.12 MHz using a custom-made 4.5 cm rf coil with an image data matrix of 256×128 pixels. Pilot scans of the tumors were completed using a fast transverse multi-slice spin-echo sequence (giving T1-weighted spectra; inter-echo time (TE)=16 msec, recovery time (TR)=500 msec) followed by T2-weighted sequences in which axial slices perpendicular to the spine (i.e., a coronal orientation) were recorded. In the latter case, spin-echo images were obtained using a 4 cm field of view, 1 mm slice thickness, 1.2 mm slice-to-slice distance and a four-sequence average. The TE and TR were optimized to provide the best image contrast generating values of 80 and 3200 msec, respectively. This gave a total imaging time of approximately 30 min. […] Tumor size was calculated using a slice-to-slice reconstruction in which the slice surface area was obtained from histograms provided by the resident Bruker software package using the following relationship: […]
where XSA is the cross-sectional area of an internal slice, ES is the cross-sectional area of an edge slice, l is the slice thickness and ssd is the distance from the middle of one slice to the middle of the next. For image analysis, the average pixel intensity of viable portions of MCF-7 tumors was determined from a central tumor slice using histograms generated by the dedicated Bruker software package. […]

[3] = test system: MMP-2 (Gelatinase A) promoter; experiment: MMP-2 (Gelatinase A) related CAT activity in transfected bovine endothelial cells; assay type: cell-based
Description: Regulation of collagenase gene expression (for MMP-2 and MMP-9) was studied by measuring the activation of the relevant promoters linked to chloramphenicol acetyl transferase (CAT) as a reporter gene. The relevant vectors were introduced into the fibrosarcoma and endothelial cells by the lipofection as indicated by the manufacturer. CAT activity was determined after 3, 6 and 24 hrs either in the absence or presence of various concentrations of TMI.
To further examine where the inhibitory effects of TMI are manifested, human fibrosarcoma cells as well as bovine endothelial cells were transfected with plasmids containing the promoters for type IV collagenase (both MMP-2 and MMP-9) and the chloramphenicol acetyl transferase (CAT) construct to act as a reporter. Simian virus-40 (SV-40) served as the positive control. TMI was added to the transfected cells at concentrations of 1, 5 and 10 μM for 2 days, at which time cell viability was confirmed by trypan blue exclusion and cell counting.
In endothelial cells, TMI reduced CAT activity by 45% at 1.0 μM and by 80% at 10 μM.

SMILES: CC/C(=C(\c1ccccc1)c1ccc(OCC[N+](C)(C)C)cc1)c1ccccc1 [TMI, Tamoxifen methiodide]
- decrease of tube area [1]: more than 70%
- tumor regression (average shrinking) [2]: 20%
- reduction of CAT activity ([3]; 1.0 μM): 45%
- reduction of CAT activity ([3]; 10 μM): 80%
